Test results as given in ChEMBL document CHEMBL1151888, “Synthesis, initial SAR and biological evaluation of 1,6-dihydroimidazo[4,5-d]pyrrolo[2,3-b]pyridin-4-amine derived inhibitors of IkappaB kinase” (Bioorg Med Chem Lett, 2009).
Converted amounts (≈) assume the structure as drawn. The source made the active and inactive calls. The calls are words filed in the database; no cut-off is given here.

Experiments:
[1] = test system: PBMC; assay: Antiinflammatory activity in human PBMC assessed as inhibition of LPS-induced TNFalpha production treated 30 mins before LPS challenge measured after 6 hrs of LPS induction by ELISA; format: functional, cell-based
[2] = Inhibition of IKK1-catalyzed phosphorylation of GST-tagged IkappaBalpha fusion protein by fluorescence polarization assay
[3] = Solubility of the compound; format: physicochemical
[4] = target: Inhibitor of nuclear factor kappa-B kinase subunit alpha (Homo sapiens) (UniProt O15111); assay: Inhibition of IKK2-catalyzed phosphorylation of GST-tagged IkappaBalpha fusion protein by fluorescence polarization assay
[5] = test system: Rattus norvegicus; assay: Antiinflammatory activity in po dosed Lewis rat assessed as inhibition of LPS-induced TNFalpha production administered 4 hrs before LPS challenge measured after 90 mins by ELISA; format: functional, organism-based
[6] = Half life in rat at 2 mg/kg, iv; format: ADME, organism-based; parameters: dose 2 mg/kg, route intravenous; settings: in vivo
[7] = Total AUC in rat at 10 mg/kg, po; format: ADME, organism-based; parameters: time AUCmax, dose 10 mg/kg, route oral; settings: in vivo
[8] = test system: Blood; assay: Antiinflammatory activity in Lewis rat whole blood assessed as inhibition of LPS-induced TNFalpha production treated 45 mins before LPS challenge measured after 4 hrs by ELISA; format: functional, tissue-based
[9] = Oral bioavailability in rat at 10 mg/kg; format: ADME, organism-based; settings: in vivo
[10] = Aqueous solubility at pH 1.0; format: physicochemical; settings: aqueous solution
[11] = Total AUC in rat at 2 mg/kg, iv; format: ADME, organism-based; parameters: time AUCmax, dose 2 mg/kg, route intravenous; settings: in vivo
[12] = test system: Serum; assay: Drug level in Lewis rat serum at 3 mg/kg, po; format: ADME, organism-based; parameters: dose 3 mg/kg, route oral; settings: in vivo, read-out: Drug uptake
[13] = Clearance in rat at 2 mg/kg, iv; format: ADME, organism-based; parameters: dose 2 mg/kg, route intravenous; settings: in vivo
[14] = Mean residence time in rat at 2 mg/kg, iv; format: ADME, organism-based; parameters: dose 2 mg/kg, route intravenous; settings: in vivo
[15] = Volume of distribution at steady state in rat at 2 mg/kg, iv; format: ADME, organism-based; parameters: dose 2 mg/kg, route intravenous; settings: in vivo, read-out: Vdss
[16] = Mean residence time in rat at 10 mg/kg, po; format: ADME, organism-based; parameters: dose 10 mg/kg, route oral; settings: in vivo
[17] = Half life in rat at 10 mg/kg, po; format: ADME, organism-based; parameters: dose 10 mg/kg, route oral; settings: in vivo
[18] = test system: Serum; assay: Drug level in Lewis rat serum at 30 mg/kg, po; format: ADME, organism-based; parameters: dose 30 mg/kg, route oral; settings: in vivo, read-out: Drug uptake
[19] = test system: Serum; assay: Drug level in Lewis rat serum at 10 mg/kg, po; format: ADME, organism-based; parameters: dose 10 mg/kg, route oral; settings: in vivo, read-out: Drug uptake
[20] = test system: Blood; assay: Antiinflammatory activity in Lewis rat whole blood assessed as inhibition of LPS-induced TNFalpha production at 17 uM treated 45 mins before LPS challenge measured after 4 hrs by ELISA; format: functional, tissue-based
[21] = test system: Rattus norvegicus; assay: Antiinflammatory activity in Lewis rat assessed as inhibition of LPS-induced TNFalpha production at 30 mg/kg, po administered 4 hrs before LPS challenge measured after 90 mins by ELISA; format: functional; parameters: scale not given: the % may be the effect or the level left

Sequence of Inhibitor of nuclear factor kappa-B kinase subunit alpha (Homo sapiens) (O15111 whole entry, looked up, the tested form may be a part): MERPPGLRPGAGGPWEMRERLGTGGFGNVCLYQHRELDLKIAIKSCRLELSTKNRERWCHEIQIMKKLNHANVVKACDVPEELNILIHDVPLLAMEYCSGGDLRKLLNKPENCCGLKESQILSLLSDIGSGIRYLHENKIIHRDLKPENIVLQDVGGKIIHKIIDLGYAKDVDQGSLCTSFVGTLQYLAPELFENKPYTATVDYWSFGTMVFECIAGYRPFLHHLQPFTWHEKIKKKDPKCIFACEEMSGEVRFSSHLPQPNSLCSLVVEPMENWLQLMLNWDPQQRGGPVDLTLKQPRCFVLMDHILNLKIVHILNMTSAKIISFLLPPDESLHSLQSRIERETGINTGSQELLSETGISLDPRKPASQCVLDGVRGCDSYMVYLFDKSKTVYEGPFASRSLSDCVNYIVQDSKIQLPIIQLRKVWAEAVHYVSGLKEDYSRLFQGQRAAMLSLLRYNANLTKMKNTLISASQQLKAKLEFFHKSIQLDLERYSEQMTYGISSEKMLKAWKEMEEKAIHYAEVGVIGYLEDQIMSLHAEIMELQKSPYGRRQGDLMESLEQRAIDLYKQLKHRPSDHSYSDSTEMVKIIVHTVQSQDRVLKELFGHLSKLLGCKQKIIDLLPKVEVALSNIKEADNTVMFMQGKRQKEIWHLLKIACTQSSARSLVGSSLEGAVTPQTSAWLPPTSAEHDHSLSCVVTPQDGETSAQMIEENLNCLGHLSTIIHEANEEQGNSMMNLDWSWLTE

| SMILES | IC50 [1] | IC50 [2] | other results |
| --- | --- | --- | --- |
| CNc1nc2[nH]c(-c3cccc(CNC(=O)CN(C)C)c3)cc2c2c1ncn2C | 2000 nM | 79 nM | – |
| CNc1nc2[nH]c(-c3cccc(F)c3)cc2c2c1ncn2C | 153 nM | – | – |
| CNc1nc2[nH]c(-c3cccc(CN)c3)cc2c2c1ncn2C | 340 nM | – | – |
| CNc1nc2c(nc(-c3ccccc3)n2C)c2c1ncn2C | 446 nM | – | – |
| CNc1nc2[nH]c(-c3cccc(CNC(=O)CO)c3)cc2c2c1ncn2C | 478 nM | – | – |
| CNc1nc2[nH]c(-c3cccc(C#N)c3)cc2c2c1ncn2C | 86 nM | 7 nM | solubility [3]: < 5 µg/mL |
| CNc1nc2oc(-c3ccccc3)nc2c2c1ncn2C | 390 nM | – | – |
| CNc1nc2[nH]c(-c3ccccc3F)cc2c2c1ncn2C | 931 nM | – | – |
| CNc1nc2[nH]c(-c3cccc(CNC(C)=O)c3)cc2c2c1ncn2C | 372 nM | 14 nM | IC50 [4]: 633 nM |
| CNc1nc2[nH]c(-c3cccc(CNC(=O)CCC(N)=O)c3)cc2c2c1ncn2C | 1000 nM | 22 nM | – |
| CNc1nc2sc(-c3ccccc3)nc2c2c1ncn2C | 310 nM | – | – |
| CNc1nc2[nH]c(-c3ccc(F)cc3)cc2c2c1ncn2C | 538 nM | 43 nM | IC50 [4]: 1730 nM |
| CNc1nc2[nH]c(-c3cccc(OC)c3)cc2c2c1ncn2C | 320 nM | 8 nM | – |
| CNc1nc2[nH]c(-c3cccc(CNC(=O)CCOC)c3)cc2c2c1ncn2C | 370 nM | 12 nM | Activity [5]: Dose-dependent effect; half-life [6]: 4.8 h; AUC [7]: 71.7 µM·h; IC50 [8]: 8000 nM; bioavailability [9]: 31%; solubility [10]: 1820 µg/mL (≈ 4.65 mM); AUC [11]: 46.9 µM·h; concentration [12]: 900 nM; clearance [13]: 1.8 mL/min/kg; MRT [14]: 2.1 h; IC50 [4]: 2620 nM; Vd [15]: 0.2 L/kg; MRT [16]: 14.7 h; half-life [17]: 11 h; concentration [18]: 17000 nM; concentration [19]: 3000 nM; Activity [20]: Active; Activity [21]: 85% |
| CNc1nc2[nH]c(-c3ccccc3)cc2c2c1ncn2C | 800 nM | – | – |
